Source: patent US20090105278A1, “Selective inhibitors of human corticosteroid syntheses” (Universitat Des Saarlandes, priority 2004, published 2009)
Where a name gives a salt, the structure may show the parent alone. Read-outs that look alike come from different tables or passages of the source.

Experiments:
CYP11B1 in NCI-H295R = biological target: T1, CYP11B1 in NCI-H295R (Homo sapiens, UniProt P15538); assay: cell-based; details: read-out: NCI-H295R CYP11B1 RSS % inhibition
T1 sequence (P15538 25-503): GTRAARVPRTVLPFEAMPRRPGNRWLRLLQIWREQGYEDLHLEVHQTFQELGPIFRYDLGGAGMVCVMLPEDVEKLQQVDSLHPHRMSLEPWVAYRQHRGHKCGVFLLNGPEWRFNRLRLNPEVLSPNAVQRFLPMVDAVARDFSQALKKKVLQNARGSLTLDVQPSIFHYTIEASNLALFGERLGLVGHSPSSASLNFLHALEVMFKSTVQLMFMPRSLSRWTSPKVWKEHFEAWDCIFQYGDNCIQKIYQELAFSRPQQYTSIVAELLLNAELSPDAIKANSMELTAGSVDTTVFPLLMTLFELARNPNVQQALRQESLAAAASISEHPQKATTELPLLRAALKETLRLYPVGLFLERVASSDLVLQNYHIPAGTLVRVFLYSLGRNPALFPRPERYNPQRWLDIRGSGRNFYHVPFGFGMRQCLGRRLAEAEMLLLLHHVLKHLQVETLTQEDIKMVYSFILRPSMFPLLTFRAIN
Protocol: (§1) For testing inhibitors, a preincubation for one hour was performed first, followed by starting the enzyme reactions by adding substrate (500 nM).
(§2) A) Seeding: The cell lines were grown and passaged until a confluent cell lawn had formed. By tryptic treatment, the cell material of at least two culture dishes was obtained, and the number of cells determined by means of a CASY TT cell counter (150 μl capillary). […] With the cell material of two confluently grown culture dishes, two 24-well plates could be coated. After 24 hours, the cells had grown on, and after another 24 hours' stimulation phase with a solution containing potassium ions (final concentration: 20 mM KCl), could be employed for the test.
(§3) Of this solution, 5 μl each was added to the samples.
(§4) Then, the 24-well plate was stored in a CO2 incubator at 37° C. and […]. The incubation time was 3 hours when deoxycorticosterone was used as the substrate, 24 Hours for corticosterone, and 48 hours for deoxycortisol.
Test stop: After elapse of the incubation times, the plates were briefly swung, and then the content of the wells was removed quantitatively if possible and inactivated by mixing with 1000 μl of dichloromethane in a 2 ml Eppendorf vessel. After 10 minutes of shaking, it was centrifuged for phase separation, and the […], organic phase was transferred into a 1.5 ml Eppendorf vessel. […]

CYP11B2 in NCI-H295R = biological target: T2, CYP11B2 in NCI-H295R (Homo sapiens, UniProt P19099); assay: NCI-H295R cells, CYP11B2 inhibition (substrates corticosterone B or deoxycorticosterone DOC); format: cell-based; details: for inhibition at 2.5 µM: NCI-H295R
T2 construct: contain 5 steroidogenic CYP450 enzymes, including 17-alpha-hydroxylase, CYP11B1 and CYP11B2; endogenous in cells; host or cells: NCI-H295R
T2 sequence (P19099 25-503): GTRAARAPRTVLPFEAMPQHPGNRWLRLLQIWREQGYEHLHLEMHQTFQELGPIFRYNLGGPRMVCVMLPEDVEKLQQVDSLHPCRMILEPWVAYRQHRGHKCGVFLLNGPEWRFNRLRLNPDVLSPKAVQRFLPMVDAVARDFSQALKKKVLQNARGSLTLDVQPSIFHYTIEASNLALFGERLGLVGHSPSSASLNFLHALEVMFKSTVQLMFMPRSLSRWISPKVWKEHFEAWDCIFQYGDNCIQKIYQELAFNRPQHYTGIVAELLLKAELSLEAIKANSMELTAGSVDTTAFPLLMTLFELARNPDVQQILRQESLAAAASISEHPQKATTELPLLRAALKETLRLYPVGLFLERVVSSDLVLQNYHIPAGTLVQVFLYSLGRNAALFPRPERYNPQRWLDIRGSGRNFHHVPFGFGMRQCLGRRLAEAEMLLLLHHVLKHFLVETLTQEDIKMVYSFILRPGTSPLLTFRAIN
Protocol: as §1, §2
In the substrate solutions for the examinations on CYP11B2, the corticosterone substrate solution (final concentration in the test: 500 nM) consisted of 38.4 μl of [1,2-^3H(N)]corticosterone (1 mCi/ml, 76.5 Ci/mmol; NEN-Perkin-Elmer) in ethanol, 39.0 μl of unlabeled corticosterone solution (0.5 mM in ethanol) and 122.6 μl of ethanol. Deoxycorticosterone, which was also employed in a final concentration of 500 nM, was composed of 18 μl of [^14C]-labeled deoxycorticosterone (60.0 mCi/mmol; 0.5 nCi/μl) in ethanol in admixture with 54 μl of unlabeled substance (0.5 mM in ethanol) and 228 μl of ethanol.
as §3, §4
Test stop: After elapse of the incubation times, the plates were briefly swung, and then the content of the wells was removed quantitatively if possible and inactivated by mixing with 1000 μl of dichloromethane in a 2 ml Eppendorf vessel. After 10 minutes of shaking, it was centrifuged for phase separation, and the […], organic phase was transferred into a 1.5 ml Eppendorf vessel.
After evaporating the solvent over night under a hood, the residue was taken up in 10 μl of chloroform and applied to the center of the concentration zone of an HPTLC plate.
For detecting the steroids on the TLC, the radiation-exposed film was scanned in the phosphoimager FLA 3000 after two days.
For the substrate corticosterone, equation 5 was valid: […]

## Fc1ccc2c(c1)CC/C2=C/c1cccnc1 [Compound 5b, 3-[(Z)-(5-Fluoro-2,3-dihydro-1H-indane-1-ylidene)methyl]pyridine Hydrochloride]
CYP11B1 in NCI-H295R
  inhibition at 2.5 µM: 73.1%
CYP11B2 in NCI-H295R; K+ stimulation 20 mM, substrate [3H]-corticosterone (B) 500 nM, incubation 24 h, read-out: NCI-H295R CYP11B2 B [IC50]
  IC50: 17 µM
CYP11B2 in NCI-H295R; read-out: NCI-H295R CYP11B2 B % inhibition
  inhibition at 2.5 µM: 6.9%
CYP11B2 in NCI-H295R; read-out: NCI-H295R CYP11B2 DOC % inhibition
  inhibition at 2.5 µM: 89.2%
CYP11B2 in NCI-H295R; substrate [14C]deoxycorticosterone (DOC) 500 nM, incubation 3 h, read-out: NCI-H295R CYP11B2 DOC [IC50]
  IC50: 0.156 µM
